Test results reported in publication PMC5218480 (PLoS ONE, 2017).

Test system: MV-4-11 cells
Experiment: Gene expression microarray analysis (Affymetrix PrimeView) and GSEA
Format: cell-based, human
Set-up: RFU PODN (11730768_x_at) / Fold change /veh PODN (11730768_x_at) / RFU LINC00158 (11744669_a_at) / Fold change /veh LINC00158 (11744669_a_at) / RFU DUSP10 (11751237_a_at) / Fold change /veh DUSP10 (11751237_a_at) / RFU ID3 (11757404_x_at) / Fold change /veh ID3 (11757404_x_at) / RFU PLEKHG5 (11737974_s_at) / Fold change /veh PLEKHG5 (11737974_s_at) / RFU LRRC4B (11730491_at) / Fold change /veh LRRC4B (11730491_at) / RFU GIMAP4 (11747438_a_at) / Fold change /veh GIMAP4 (11747438_a_at) / RFU KRT8 (11758183_x_at) / Fold change /veh KRT8 (11758183_x_at) / RFU CNN1 (11734310_a_at) / Fold change /veh CNN1 (11734310_a_at) / RFU VPS37D (11726825_at) / Fold change /veh VPS37D (11726825_at) / RFU C10orf10 (11716522_x_at) / Fold change /veh C10orf10 (11716522_x_at) / RFU KIR2DL2 /// KIR2DL4 /// KIR2DL5A /// KIR2DL5B /// KIR2DS1 /// KIR2DS2 /// KIR2DS3 /// KIR2DS4 /// KIR3DL3 /// KIR3DL3 /// KIR3DS1 (11738374_at) / Fold change /veh KIR2DL2 /// KIR2DL4 /// KIR2DL5A /// KIR2DL5B /// KIR2DS1 /// KIR2DS2 /// KIR2DS3 /// KIR2DS4 /// KIR3DL3 /// KIR3DL3 /// KIR3DS1 (11738374_at) / RFU C1QL1 (11718748_at) / Fold change /veh C1QL1 (11718748_at) / RFU TMPRSS4 (11747572_a_at) / Fold change /veh TMPRSS4 (11747572_a_at) / RFU HAMP (11756126_x_at) / Fold change /veh HAMP (11756126_x_at) / RFU RNFT2 (11725882_a_at) / Fold change /veh RNFT2 (11725882_a_at) / RFU NR4A2 (11747474_a_at) / Fold change /veh NR4A2 (11747474_a_at) / RFU ABCC12 (11746883_a_at) / Fold change /veh ABCC12 (11746883_a_at) / RFU TMEM136 (11760407_x_at) / Fold change /veh TMEM136 (11760407_x_at) / RFU CLDN22 /// WWC2 (11732394_at) / Fold change /veh CLDN22 /// WWC2 (11732394_at) / RFU HLA-DPB1 (11760878_x_at) / Fold change /veh HLA-DPB1 (11760878_x_at) / RFU SPINT1 (11716480_a_at) / Fold change /veh SPINT1 (11716480_a_at) / RFU GAP43 (11754022_s_at) / Fold change /veh GAP43 (11754022_s_at) / RFU A4GNT (11735810_at) / Fold change /veh A4GNT (11735810_at) / RFU PRB3 (11715151_x_at) / Fold change /veh PRB3 (11715151_x_at) / RFU TUBB4B (11761932_at) / Fold change /veh TUBB4B (11761932_at) / RFU CAPN14 (11732068_a_at) / Fold change /veh CAPN14 (11732068_a_at) / RFU TMCC2 (11721928_a_at) / Fold change /veh TMCC2 (11721928_a_at) / RFU IRGQ (11745062_a_at) / Fold change /veh IRGQ (11745062_a_at) / RFU FAM174B (11720279_a_at) / Fold change /veh FAM174B (11720279_a_at) / RFU TMPRSS4 (11748680_a_at) / Fold change /veh TMPRSS4 (11748680_a_at) / RFU FAM212B (11763350_a_at) / Fold change /veh FAM212B (11763350_a_at) / RFU PLEKHG5 (11743358_a_at) / Fold change /veh PLEKHG5 (11743358_a_at) / RFU ZSCAN30 (11745921_a_at) / Fold change /veh ZSCAN30 (11745921_a_at) / RFU CMKLR1 (11741424_a_at) / Fold change /veh CMKLR1 (11741424_a_at) / RFU LOC101060620 /// MAPK8IP1 (11723275_at) / Fold change /veh LOC101060620 /// MAPK8IP1 (11723275_at) / RFU SPTSSB (11747773_x_at) / Fold change /veh SPTSSB (11747773_x_at) / RFU PRSS12 (11739890_at) / Fold change /veh PRSS12 (11739890_at) / RFU BIN1 (11741810_x_at) / Fold change /veh BIN1 (11741810_x_at) / RFU WNT11 (11732464_a_at) / Fold change /veh WNT11 (11732464_a_at) / RFU C10orf10 (11716521_a_at) / Fold change /veh C10orf10 (11716521_a_at) / RFU C5orf56 (11738089_at) / Fold change /veh C5orf56 (11738089_at) / RFU CYB561 (11721691_x_at) / Fold change /veh CYB561 (11721691_x_at) / RFU ANKRD19P (11752326_a_at) / Fold change /veh ANKRD19P (11752326_a_at) / RFU OR2T12 /// OR2T33 /// OR2T8 (11738714_s_at) / Fold change /veh OR2T12 /// OR2T33 /// OR2T8 (11738714_s_at) / RFU VCAN (11748164_a_at) / Fold change /veh VCAN (11748164_a_at) / RFU JSRP1 (11732532_at) / Fold change /veh JSRP1 (11732532_at) / RFU KRTAP10-11 (11738290_x_at) / Fold change /veh KRTAP10-11 (11738290_x_at) / RFU MYO3A (11730013_a_at) / Fold change /veh MYO3A (11730013_a_at) / RFU EBF3 (11725865_a_at) / Fold change /veh EBF3 (11725865_a_at) / RFU CAMK2N1 (11719241_x_at) / Fold change /veh CAMK2N1 (11719241_x_at) / RFU C5orf56 (11738088_a_at) / Fold change /veh C5orf56 (11738088_a_at) / RFU OLFML3 (11715873_a_at) / Fold change /veh OLFML3 (11715873_a_at) / RFU LOC100653217 /// NTM (11731650_a_at) / Fold change /veh LOC100653217 /// NTM (11731650_a_at) / RFU MAPK11 (11762145_a_at) / Fold change /veh MAPK11 (11762145_a_at) / RFU FIZ1 (11724087_x_at) / Fold change /veh FIZ1 (11724087_x_at) / RFU OASL (11726364_x_at) / Fold change /veh OASL (11726364_x_at) / RFU SOX15 (11748057_x_at) / Fold change /veh SOX15 (11748057_x_at) / RFU CD79A (11719716_a_at) / Fold change /veh CD79A (11719716_a_at) / RFU HIST1H1D (11736915_at) / Fold change /veh HIST1H1D (11736915_at) / RFU CASKIN2 (11723855_a_at) / Fold change /veh CASKIN2 (11723855_a_at) / RFU LOC730098 (11760151_x_at) / Fold change /veh LOC730098 (11760151_x_at) / RFU OR4N2 (11742367_at) / Fold change /veh OR4N2 (11742367_at) / RFU PRRT2 (11749266_a_at) / Fold change /veh PRRT2 (11749266_a_at) / RFU SNX32 (11753110_a_at) / Fold change /veh SNX32 (11753110_a_at) / RFU CDHR5 (11726645_a_at) / Fold change /veh CDHR5 (11726645_a_at) / RFU RCAN1 (11760418_a_at) / Fold change /veh RCAN1 (11760418_a_at) / RFU FAM167A (11723789_a_at) / Fold change /veh FAM167A (11723789_a_at) / RFU FAM26E (11764081_at) / Fold change /veh FAM26E (11764081_at) / RFU ISYNA1 (11749810_s_at) / Fold change /veh ISYNA1 (11749810_s_at) / RFU ACY1 (11761880_at) / Fold change /veh ACY1 (11761880_at) / RFU 11764098_at / Fold change /veh 11764098_at / RFU SAMD14 (11745864_x_at) / Fold change /veh SAMD14 (11745864_x_at) / RFU NPB (11741838_a_at) / Fold change /veh NPB (11741838_a_at) / RFU TMPRSS6 (11731388_a_at) / Fold change /veh TMPRSS6 (11731388_a_at) / RFU KRTAP10-2 (11738614_at) / Fold change /veh KRTAP10-2 (11738614_at) / RFU ARHGAP8 /// PRR5-ARHGAP8 (11727945_x_at) / Fold change /veh ARHGAP8 /// PRR5-ARHGAP8 (11727945_x_at) / RFU KRTAP5-7 /// NADSYN1 (11734609_at) / Fold change /veh KRTAP5-7 /// NADSYN1 (11734609_at) / RFU RASL12 (11751679_a_at) / Fold change /veh RASL12 (11751679_a_at) / RFU CDKN2B (11736163_a_at) / Fold change /veh CDKN2B (11736163_a_at) / RFU PRF1 (11729649_at) / Fold change /veh PRF1 (11729649_at) / RFU, ZNF638 /// ZNF638-IT1 / Fold change vs veh, ZNF638 /// ZNF638-IT1 / RFU, PANK3 / Fold change vs veh, PANK3 / RFU, SH3YL1 / Fold change vs veh, SH3YL1 / RFU, ZEB2 / Fold change vs veh, ZEB2 / RFU, NRIP1 / Fold change vs veh, NRIP1 / RFU, PTTG1IP / Fold change vs veh, PTTG1IP / RFU, CAPN2 / Fold change vs veh, CAPN2 / RFU, MED14 / Fold change vs veh, MED14 / RFU, SNORA58 / Fold change vs veh, SNORA58 / RFU, C1orf63 / Fold change vs veh, C1orf63 / RFU, LRRFIP1 / Fold change vs veh, LRRFIP1 / RFU, NDUFAF7 / Fold change vs veh, NDUFAF7 / RFU, SLC12A2 / Fold change vs veh, SLC12A2 / RFU, IBTK / Fold change vs veh, IBTK / RFU, ESF1 / Fold change vs veh, ESF1 / Fold change vs veh, TMEM50B / RFU, TAOK1 / Fold change vs veh, TAOK1 / RFU, ACBD3 / Fold change vs veh, ACBD3 / RFU, TMA16 / Fold change vs veh, TMA16 / RFU, RWDD3 / Fold change vs veh, RWDD3 / RFU, BCAT1 / Fold change vs veh, BCAT1 / RFU, EDEM3 / Fold change vs veh, EDEM3 / RFU, TMEM33 / Fold change vs veh, TMEM33 / RFU, WDR75 / Fold change vs veh, WDR75 / RFU, AHCTF1 / Fold change vs veh, AHCTF1 / RFU, TFRC / Fold change vs veh, TFRC / RFU, ZDHHC17 / Fold change vs veh, ZDHHC17 / RFU, NOM1 / Fold change vs veh, NOM1 / RFU, ARL8B / Fold change vs veh, ARL8B / RFU, ZBTB11 / Fold change vs veh, ZBTB11 / RFU, TAMM41 / Fold change vs veh, TAMM41 / RFU, KIAA1704 /// LOC100996395 / Fold change vs veh, KIAA1704 /// LOC100996395 / RFU, ING1 / Fold change vs veh, ING1 / RFU, TRMT61B / Fold change vs veh, TRMT61B / RFU, FUBP3 / Fold change vs veh, FUBP3 / RFU, TP53 / Fold change vs veh, TP53 / RFU, TNKS2 / Fold change vs veh, TNKS2 / RFU, ZFP14 / Fold change vs veh, ZFP14 / RFU, ACTR2 / Fold change vs veh, ACTR2 / RFU, PPP3R1 / Fold change vs veh, PPP3R1 / RFU, PIK3R1 / Fold change vs veh, PIK3R1 / RFU, HNRNPA1 / Fold change vs veh, HNRNPA1 / RFU, RNF170 / Fold change vs veh, RNF170 / RFU, ZNF28 / Fold change vs veh, ZNF28 / RFU, RNGTT / Fold change vs veh, RNGTT / RFU, OGT / Fold change vs veh, OGT / RFU, BRD1 / Fold change vs veh, BRD1 / RFU, MARS / Fold change vs veh, MARS / RFU, ZNF655 / Fold change vs veh, ZNF655 / RFU, FAHD1 / Fold change vs veh, FAHD1 / RFU, BDP1 / Fold change vs veh, BDP1 / RFU, LRRCC1 / Fold change vs veh, LRRCC1 / RFU, ARID1A / Fold change vs veh, ARID1A / RFU, ZNF146 / Fold change vs veh, ZNF146 / RFU, ZNF330 / Fold change vs veh, ZNF330 / RFU, GPN3 / Fold change vs veh, GPN3 / RFU, C9orf123 / Fold change vs veh, C9orf123 / RFU, N4BP2L2 / Fold change vs veh, N4BP2L2 / RFU, ARFIP1 / Fold change vs veh, ARFIP1 / RFU, FAM179B / Fold change vs veh, FAM179B / RFU, BCL10 / Fold change vs veh, BCL10 / RFU, UHRF1BP1L / Fold change vs veh, UHRF1BP1L / RFU, BET1 / Fold change vs veh, BET1 / RFU, CNOT2 / Fold change vs veh, CNOT2 / RFU, ZNF268 / Fold change vs veh, ZNF268 / Fold change vs veh, ZNF507 / RFU, DGCR2 / Fold change vs veh, DGCR2 / RFU, WDSUB1 / Fold change vs veh, WDSUB1 / Fold change vs veh, HSP90B1 /// MIR3652 / RFU, ADSS / Fold change vs veh, ADSS / RFU, GK / Fold change vs veh, GK / RFU, ZNF148 / Fold change vs veh, ZNF148 / RFU, TAF9 / Fold change vs veh, TAF9 / RFU, SLC1A5 / Fold change vs veh, SLC1A5 / RFU, SLMO2 / Fold change vs veh, SLMO2 / RFU, ABCC4 / Fold change vs veh, ABCC4 / RFU, LOC101060439 /// RAP1B / Fold change vs veh, LOC101060439 /// RAP1B / RFU, RFX7 / Fold change vs veh, RFX7 / RFU, GTPBP10 / Fold change vs veh, GTPBP10 / RFU, CNEP1R1 / Fold change vs veh, CNEP1R1 / RFU, BIVM-ERCC5 /// ERCC5 / Fold change vs veh, BIVM-ERCC5 /// ERCC5 / RFU, ILF3 / Fold change vs veh, ILF3 / RFU 11762660_at / Fold change /veh 11762660_at / RFU VCAN (11757783_s_at) / Fold change /veh VCAN (11757783_s_at) / RFU DDX43 (11728927_at) / Fold change /veh DDX43 (11728927_at) / RFU KRT8 (11758188_x_at) / Fold change /veh KRT8 (11758188_x_at) / RFU NKD1 (11759106_at) / Fold change /veh NKD1 (11759106_at) / RFU SRD5A1 (11742802_a_at) / Fold change /veh SRD5A1 (11742802_a_at) / RFU TPSAB1 /// TPSB2 (11721975_s_at) / Fold change /veh TPSAB1 /// TPSB2 (11721975_s_at) / RFU GSTM3 (11746129_a_at) / Fold change /veh GSTM3 (11746129_a_at) / RFU IL23R (11737362_x_at) / Fold change /veh IL23R (11737362_x_at) / RFU TMEM51 (11727254_a_at) / Fold change /veh TMEM51 (11727254_a_at) / RFU PIWIL2 (11732686_x_at) / Fold change /veh PIWIL2 (11732686_x_at) / RFU ORM1 (11744905_x_at) / Fold change /veh ORM1 (11744905_x_at) / RFU CCDC152 (11743942_at) / Fold change /veh CCDC152 (11743942_at) / RFU ECM1 (11717891_a_at) / Fold change /veh ECM1 (11717891_a_at) / RFU IL23R (11748794_a_at) / Fold change /veh IL23R (11748794_a_at) / RFU TNFAIP8L3 (11732012_x_at) / Fold change /veh TNFAIP8L3 (11732012_x_at) / RFU MBOAT4 (11741988_at) / Fold change /veh MBOAT4 (11741988_at) / RFU 11764193_at / Fold change /veh 11764193_at / RFU TMEM53 (11763286_at) / Fold change /veh TMEM53 (11763286_at) / RFU MAGEB2 (11727129_at) / Fold change /veh MAGEB2 (11727129_at) / RFU TMEM200A (11744735_a_at) / Fold change /veh TMEM200A (11744735_a_at) / RFU CCDC152 (11751479_a_at) / Fold change /veh CCDC152 (11751479_a_at) / RFU FAM211A (11726209_a_at) / Fold change /veh FAM211A (11726209_a_at) / RFU RGS16 (11746705_a_at) / Fold change /veh RGS16 (11746705_a_at) / RFU VCAN (11755009_s_at) / Fold change /veh VCAN (11755009_s_at) / RFU RHOB (11743442_s_at) / Fold change /veh RHOB (11743442_s_at) / RFU RGS16 (11720943_a_at) / Fold change /veh RGS16 (11720943_a_at) / RFU RGS16 (11720944_at) / Fold change /veh RGS16 (11720944_at) / RFU, VPS4B / Fold change vs veh, VPS4B / RFU, CREB1 / Fold change vs veh, CREB1 / RFU, DNAJC13 / Fold change vs veh, DNAJC13 / RFU, GNAQ / Fold change vs veh, GNAQ / RFU, CDK5R1 / Fold change vs veh, CDK5R1 / RFU, ZRANB3 / Fold change vs veh, ZRANB3 / RFU, CUL4A / Fold change vs veh, CUL4A / RFU, CCNY / Fold change vs veh, CCNY / RFU, UFL1 / Fold change vs veh, UFL1 / RFU, COG3 / Fold change vs veh, COG3 / RFU, DIAPH2 / Fold change vs veh, DIAPH2 / RFU, SKA2 / Fold change vs veh, SKA2 / RFU, AFF3 / Fold change vs veh, AFF3 / RFU, LMF1 / Fold change vs veh, LMF1 / RFU, IPO11 / Fold change vs veh, IPO11 / RFU, DFFB / Fold change vs veh, DFFB / RFU, FOXP1 / Fold change vs veh, FOXP1 / RFU, CARD8 / Fold change vs veh, CARD8 / RFU, STRN3 / Fold change vs veh, STRN3 / RFU, ADK / Fold change vs veh, ADK / RFU, RASSF2 / Fold change vs veh, RASSF2 / RFU, WIPF1 / Fold change vs veh, WIPF1 / RFU, LARP1B / Fold change vs veh, LARP1B / RFU, RASA1 / Fold change vs veh, RASA1 / RFU, RB1 / Fold change vs veh, RB1 / RFU, PPFIA1 / Fold change vs veh, PPFIA1 / RFU, MAT2A / Fold change vs veh, MAT2A / RFU, CCT5 / Fold change vs veh, CCT5 / RFU, WDR92 / Fold change vs veh, WDR92 / RFU, CUX1 / Fold change vs veh, CUX1 / RFU, TTC7A / Fold change vs veh, TTC7A / RFU, TMEM135 / Fold change vs veh, TMEM135 / RFU, DEPTOR / Fold change vs veh, DEPTOR / RFU, CPM / Fold change vs veh, CPM / RFU, DNAJB6 / Fold change vs veh, DNAJB6 / RFU, CACNA2D3 / Fold change vs veh, CACNA2D3 / RFU, DTX4 / Fold change vs veh, DTX4 / RFU, TFCP2 / Fold change vs veh, TFCP2 / RFU, GMCL1 /// GMCL1P1 / Fold change vs veh, GMCL1 /// GMCL1P1 / RFU, AEBP2 / Fold change vs veh, AEBP2 / RFU, SNHG1 /// SNORD22 /// SNORD25 /// SNORD26 /// SNORD27 /// SNORD28 /// SNORD29 /// SNORD31 / Fold change vs veh, SNHG1 /// SNORD22 /// SNORD25 /// SNORD26 /// SNORD27 /// SNORD28 /// SNORD29 /// SNORD31 / Fold change (Aza/veh), C12orf56 (ProbeSet 11735607_a_at) / Fold change (ACY-1035/veh), C12orf56 (ProbeSet 11735607_a_at) / Fold change (Aza/veh), FGFR1OP (ProbeSet 11751329_s_at) / Fold change (ACY-1035/veh), FGFR1OP (ProbeSet 11751329_s_at) / Fold change (Aza/veh), VPS36 (ProbeSet 11739960_a_at) / Fold change (ACY-1035/veh), VPS36 (ProbeSet 11739960_a_at) / RFU SYPL1 (11715823_x_at) / Fold change /veh SYPL1 (11715823_x_at) / RFU IGFBP7 (11715501_s_at) / Fold change /veh IGFBP7 (11715501_s_at) / RFU REEP3 (11722064_at) / Fold change /veh REEP3 (11722064_at) / RFU IGLL1 (11728026_x_at) / Fold change /veh IGLL1 (11728026_x_at): dose or concentration left out as unconfirmed
Conditions: ProbeSet 11719817_x_at; LIST B

## Nc1ncn([C@@H]2O[C@H](CO)[C@@H](O)[C@H]2O)c(=O)n1 [azacitidine]
  RFU, BET1: 81.04 RFU
